Data set [1] concerns the target T1, E. coli DH5α tryptophan synthase (TrpBA) (Escherichia coli, UniProt P0A879).
T1 construct: made in house; host or cells: E. coli LMG194 (pBAD) or BL-21 (pET)
Type of data set: biochemical. On the set-up: key: +: a clear ninhydrin-positive spot at the Rf of standard tryptophan derivatives after 16-65 h; (+): a weak spot in the product region; −: no product observed; NR: experiment not run. The conditions noted are these: indole derivative + L-serine + PLP, 37° C., 16-65 h, ninhydrin. The protocol:
(§1) A mixture containing 2 μmole of the indole derivative, 0.05 μmole of PLP and 50 μmol of L-serine in 40 mM KPi buffer in 8% v/v ethanol water, pH 7.5, was warmed to 37° C., then enzyme solution was added to give a final volume of 1 mL. Aliquots (100 μL) were quenched at intervals of 2, 6, and 24 hours or more in microcentrifuge capsules containing 25 μL of 6 M HCl. The quenched samples were evaporated in a Savant Speed-vac. The residues were resuspended in methanol/water (1:1, 50 μL) and analyzed by TLC on Silica gel GF254 plates alongside tryptophan and tryptamine standards, eluting with CH2Cl2/EtOH/H2O/HOAc 77:20:2:1. Products were visualized first by using short-wave UV light, then with ninhydrin spray reagent (1/1/98 w/v/v ninhydrin/HOAc/EtOH) followed by heating.
(§2) Substituted indoles were incubated with L-serine, PLP and enzyme (TrpBA or TnA) prior to TLC analysis as generally described in Example 6. Serine, which can be used instead of pyruvate and ammonia for tryptophan synthesis with TnA, was employed as the 3-carbon acid because pyruvate tended to obscure the tryptophan product spots when plates were visualized with ninhydrin. TnA-catalyzed formation of tryptophan was also faster when serine was the 3-carbon donor. Reaction rates for several substrates were also estimated by HPLC.
(§3) In Table 4, “+” indicates a clear ninhydrin-positive spot at the Rf of standard tryptophan derivatives after 16-65 h; “(+)” indicates a weak spot in the product region; “−” means no product observed, “NR” means experiment not run. ESMS=electrospray mass spectrometry. Unless otherwise indicated, the mass value given represents the singly-protonated molecular ion (M+1).

Data set [2] deals with T2, tryptophanase (TnA) (Escherichia coli, UniProt P0A853).
T2 construct: made in house; host or cells: E. coli LMG194 (pBAD) or BL-21 (pET)
Type of data set: biochemical, E. coli. The conditions noted are these: indole derivative + L-serine + PLP, 37° C., 16-65 h, ninhydrin. Further details: key: +: a clear ninhydrin-positive spot at the Rf of standard tryptophan derivatives after 16-65 h; (+): a weak spot in the product region; −: no product observed; NR: experiment not run. The protocol: as §1, §2, §3

Data set [3] deals with T3, synAAAD (synthetic gene based on pkAAAD protein sequence) (Sus scrofa, UniProt P80041).
T3 construct: made in house; host or cells: E. coli (pET-15 vector)
T3 sequence (P80041 1-486): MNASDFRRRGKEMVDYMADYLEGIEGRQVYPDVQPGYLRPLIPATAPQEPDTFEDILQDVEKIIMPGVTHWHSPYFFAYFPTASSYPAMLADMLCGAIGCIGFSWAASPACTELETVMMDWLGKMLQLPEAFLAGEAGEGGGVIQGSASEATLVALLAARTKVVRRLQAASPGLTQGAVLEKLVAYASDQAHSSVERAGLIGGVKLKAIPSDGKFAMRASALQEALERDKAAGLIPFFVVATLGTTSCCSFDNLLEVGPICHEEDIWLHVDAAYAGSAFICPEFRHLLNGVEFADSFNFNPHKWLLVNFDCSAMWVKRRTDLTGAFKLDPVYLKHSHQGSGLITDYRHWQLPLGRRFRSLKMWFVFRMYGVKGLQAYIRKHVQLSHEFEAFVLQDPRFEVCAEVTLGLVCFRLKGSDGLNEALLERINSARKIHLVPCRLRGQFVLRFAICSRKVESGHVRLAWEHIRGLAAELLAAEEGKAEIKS
Description: Substrate screen for tryptophan decarboxylation, SynAAAD. Type of data set: biochemical. Conditions: tryptophan derivative, PLP, pH 7.5, 37° C. Further details: key: +: a clear ninhydrin-positive spot at the Rf of standard tryptophan derivatives after 16-65 h; (+): a weak spot in the product region; −: no product observed; NR: experiment not run. The protocol:
A mixture containing 1 μmole of the tryptophan derivative, 0.05 μmole of PLP and 50 μmol of L-serine in 40 mM pH 7.5 KPi buffer was warmed to 37° C., then enzyme solution was added to give a final volume of 1 mL. Aliquots (100 HL) were quenched at intervals and were evaporated in a Savant Speed-vac as in Example 6. For TLC analysis, CH2Cl2/EtOH/H2O/HOAc 49:49:1:1 was used as the solvent. The plates were visualized with short-wave UV light and ninhydrin as in Example 6.
HPLC techniques were used to monitor the decarboxylation of substituted tryptophans. Mass spectral analysis of the collected HPLC peaks was used to confirm the identity of several tryptamine derivatives, as shown in Table 5.

Data set [4] can be described thus: Decarboxylase activity of the enzyme preparations (Ehrlich's reagent). Type of data set: biochemical. The protocol:
Tryptophan synthase activity was assayed by monitoring the increase in absorbance at 290 nm of a mixture containing serine, indole and PLP (Higgins, W., et al., Biochemistry, 1979, 18, 4827). TnA-catalyzed tryptophan synthesis was also measured by the 290 nm assay, while the tryptophan lyase reaction rate was measured by monitoring the reduction in NADH in reaction mixtures containing L-tryptophan and lactate dehydrogenase, indicating the amount of pyruvate released. Tryptophan decarboxylase was assayed colorimetrically by monitoring the sabsorbance at 580 nm produced by serotonin (AAADs) or tryptamine (TDCs) following treatment of reaction aliquots with Ehrlich's reagent (4-N,N-(dimethyl)aminobenzaldehyde in ethanolic HCl; Nakazawa, H.; Kumagi, H.; Yamada, H. Biochem Biophys. Res. Commun., 1974, 61, 75-82). Serotonin could be detected with approximately 5-fold higher sensitivity by this method as compared with tryptamine. The Ehrlich reagent assay using a microtiter plate format for simultaneous analysis of multiple enzyme samples may also be used. HPLC analysis was performed on acid-quenched reaction aliquots by using a base-deactivated C8 reversed-phase support (Shandon Hypersil BD8). HPLC analysis of acid-quenched aliquots permitted calculation of a rate ratio of 4.5 to 1 for pkAAAD-catalyzed DOPA decarboxylation relative to that of L-5-hydroxytryptophan, in good agreement with the accepted ratio of approximately 5:1. (See Sourkes, T. L. Methods Enzymol., 1987, 142, 170-178, which is incorporated herein by reference.)
A mixture (0.95 mL) containing L-5-hydroxytryptophan (2 mM), PLP (0.25 mM) and pH 7.5 KPi buffer (44 mM) was warmed to 37° C., then 50 μL of enzyme was added. Reaction aliquots were quenched in microcentrifuge capsules containing 50 μL each of 6M HCl to quench the enzyme reaction at 2, 5, and 20 min. Quenched aliquots were heated at 50° C. for 40 min with 750 μL each of Ehrlich's reagent (2:24:74 w/v/v […]: conc HCl: ethanol). Absorbance was read at 580-nm and compared with standards of serotonin (10-250 μM) or tryptamine (50 to 2000 μM).
Decarboxylase enzyme activity was determined using L-5-hydroxytryptophan as the substrate unless otherwise stated.

The mark [5] stands for this setting: Table 2, L-5-hydroxytryptophan as substrate.

The record followed here is patent US20030096379A1, “Method for producing tryptamine derivatives” (priority 2001, published 2003).

T2 sequence (P0A853 whole entry): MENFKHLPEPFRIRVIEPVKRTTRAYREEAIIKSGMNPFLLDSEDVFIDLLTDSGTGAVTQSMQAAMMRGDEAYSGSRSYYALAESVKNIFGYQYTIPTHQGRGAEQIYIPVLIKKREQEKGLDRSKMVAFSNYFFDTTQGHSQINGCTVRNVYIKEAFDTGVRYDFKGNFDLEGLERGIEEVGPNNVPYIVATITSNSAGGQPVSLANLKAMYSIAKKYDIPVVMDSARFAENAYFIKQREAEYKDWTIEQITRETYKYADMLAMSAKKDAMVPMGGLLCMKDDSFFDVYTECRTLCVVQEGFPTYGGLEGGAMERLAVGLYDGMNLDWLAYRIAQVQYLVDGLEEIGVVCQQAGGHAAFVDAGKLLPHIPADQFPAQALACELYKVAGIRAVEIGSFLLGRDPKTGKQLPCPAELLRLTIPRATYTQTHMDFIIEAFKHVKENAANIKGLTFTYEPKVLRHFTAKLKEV
T1 sequence (P0A879 whole entry): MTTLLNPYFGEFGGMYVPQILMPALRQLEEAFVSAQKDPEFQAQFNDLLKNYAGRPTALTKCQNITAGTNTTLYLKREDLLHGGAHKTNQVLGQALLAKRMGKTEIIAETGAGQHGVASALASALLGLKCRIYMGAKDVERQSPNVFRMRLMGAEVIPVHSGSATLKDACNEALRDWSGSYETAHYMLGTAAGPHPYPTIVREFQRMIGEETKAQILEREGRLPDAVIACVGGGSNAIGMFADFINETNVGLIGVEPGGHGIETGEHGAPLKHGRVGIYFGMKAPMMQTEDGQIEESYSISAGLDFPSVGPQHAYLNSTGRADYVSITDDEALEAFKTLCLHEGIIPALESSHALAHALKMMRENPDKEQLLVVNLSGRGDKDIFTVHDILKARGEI
T1 sequence (P0A877 whole entry, further chain): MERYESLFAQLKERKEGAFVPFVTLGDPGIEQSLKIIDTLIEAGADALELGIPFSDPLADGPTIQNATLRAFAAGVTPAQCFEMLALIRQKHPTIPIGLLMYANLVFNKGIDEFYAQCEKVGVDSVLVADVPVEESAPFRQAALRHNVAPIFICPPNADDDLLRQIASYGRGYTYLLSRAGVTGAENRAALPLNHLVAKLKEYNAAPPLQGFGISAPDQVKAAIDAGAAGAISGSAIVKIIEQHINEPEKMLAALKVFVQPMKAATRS

As for “indoxyl acetate [4-acetoxy-[indoxyl acetate]]”, the “TrpBA (tryptophan product spot, TLC analysis)” value (shortened to “TrpBA”) in data set [1] is listed as “+”. In addition, the “TnA (tryptophan product spot, TLC analysis)” value (from here on “TnA”) in data set [2] is on record as “+”.
In the case of `Clc1ccc2cc[nH]c2c1` [6-chloroindole], in data set [1], the “TrpBA” value is listed as “−”. The “TnA” value in data set [2] is reported as “+”.
In the case of `O=C(O)c1cc2cc(Br)ccc2[nH]1` [5-bromoindole-2-carboxylic acid], the “TrpBA” value in data set [1] was “−”.
For `O=C(O)c1ccc2[nH]ccc2c1` [Indole-5-carboxylic acid], the “TrpBA” value in data set [1] is “−”. The “TnA” value in data set [2] was “−”.
As for `O=[N+]([O-])c1ccc2[nH]ccc2c1` [5-nitro-], in data set [1], the “TrpBA” value is reported as “−”. The “TnA” value in data set [2] is given as “−”.
In the case of `Nc1ccc2[nH]ccc2c1` [5-amino-], the “TrpBA” value in data set [1] is “−”. Further, the “TnA” value in data set [2] was “−”.
Take `O=[N+]([O-])c1cccc2[nH]ccc12` [4-nitro-]: the “TrpBA” value in data set [1] is given as “−”. Also, the “TnA” value in data set [2] was “−”.
With `COc1ccc2[nH]c(C)cc2c1` [5-methoxy-2-methyl-], in data set [1], the “TrpBA” value was “+”. Besides, in data set [2], the “TnA” value was “−”.
`COc1ccc2[nH]cc(CC(N)C(=O)O)c2c1` (racemic) [DL-5-methoxy-trp]: the “SynAAAD (decarboxylation substrate screen)” value in data set [3] was “(+)”.
For the molecule `COc1ccc2cc[nH]c2c1` [6-methoxyindole], in data set [1], the “TrpBA” value is reported as “+”. Further, the “TnA” value in data set [2] is “(+)”.
On the same counts, the results for `Clc1cccc2cc[nH]c12` [7-chloro] are “+” and “−”.
Take `Clc1ccc2[nH]ccc2c1` [5-chloro-]: the “TrpBA” value in data set [1] was “+”. The “TnA” value in data set [2] is recorded as “+”.
Regarding `Oc1ccc2[nH]ccc2c1` [5-hydroxy-], in data set [1], the “TrpBA” value is given as “+”. For the same molecule, the “TnA” value in data set [2] is given as “+”.
For `Cc1ccc2[nH]c(C)cc2c1` [2,5-dimethyl-], the “TrpBA” value in data set [1] is reported as “+”. The “TnA” value in data set [2] is “−”.
On to `N#Cc1ccc2[nH]ccc2c1` [5-cyano-], for which, in data set [1], the “TrpBA” value is “−”. For the same molecule, the “TnA” value in data set [2] is given as “−”.
Regarding `Nc1cccc2[nH]ccc12` [4-amino-], the “TrpBA” value in data set [1] is given as “+”. For the same molecule, in data set [2], the “TnA” value was “+”.
`N[C@@H](Cc1c[nH]c2ccc(CO)cc12)C(=O)O` [L-5-(hydroxymethyl)-trp]: in data set [3], the “SynAAAD (decarboxylation substrate screen)” value is given as “−”.
For the molecule `Fc1ccc2cc[nH]c2c1` [6-fluoroindole], the “TrpBA” value in data set [1] is “+”. Further, the “TnA” value in data set [2] is recorded as “(+)”.
Take `Oc1cccc2[nH]ccc12` [4-hydroxy]: the “TrpBA” value in data set [1] is “+”. Further, the “TnA” value in data set [2] is recorded as “+”.

B1: synAAAD: enzyme from synthetic gene optimized for E. coli expression, based on the pkAAAD protein sequence (protein, UniProt P80041 1-486, looked up)
Aromatic-L-amino-acid …: MNASDFRRRGKEMVDYMADYLEGIEGRQVYPDVQPGYLRPLIPATAPQEPDTFEDILQDVEKIIMPGVTHWHSPYFFAYFPTASSYPAMLADMLCGAIGCIGFSWAASPACTELETVMMDWLGKMLQLPEAFLAGEAGEGGGVIQGSASEATLVALLAARTKVVRRLQAASPGLTQGAVLEKLVAYASDQAHSSVERAGLIGGVKLKAIPSDGKFAMRASALQEALERDKAAGLIPFFVVATLGTTSCCSFDNLLEVGPICHEEDIWLHVDAAYAGSAFICPEFRHLLNGVEFADSFNFNPHKWLLVNFDCSAMWVKRRTDLTGAFKLDPVYLKHSHQGSGLITDYRHWQLPLGRRFRSLKMWFVFRMYGVKGLQAYIRKHVQLSHEFEAFVLQDPRFEVCAEVTLGLVCFRLKGSDGLNEALLERINSARKIHLVPCRLRGQFVLRFAICSRKVESGHVRLAWEHIRGLAAELLAAEEGKAEIKS
modifications: codon-optimized synthetic gene
In data set [4] (setting [5]), B1 yielded a Crude specific activity of 0.18 units/mg and a Purified specific activity of 0.3 Units/mg. The same molecule gave a Crude specific activity in data set [4] (Table 3, decarboxylases) of 0.18 units/mg. Besides, in data set [4] (crude extracts), the “specific activity in crude extracts” value is 0.1-0.2 units/mg.

B2: pkAAAD: aromatic amino acid decarboxylase extracted from pig kidney tissue, E.C. 4.1.1.28 (protein, UniProt P80041 1-486, looked up)
Aromatic-L-amino-acid …: MNASDFRRRGKEMVDYMADYLEGIEGRQVYPDVQPGYLRPLIPATAPQEPDTFEDILQDVEKIIMPGVTHWHSPYFFAYFPTASSYPAMLADMLCGAIGCIGFSWAASPACTELETVMMDWLGKMLQLPEAFLAGEAGEGGGVIQGSASEATLVALLAARTKVVRRLQAASPGLTQGAVLEKLVAYASDQAHSSVERAGLIGGVKLKAIPSDGKFAMRASALQEALERDKAAGLIPFFVVATLGTTSCCSFDNLLEVGPICHEEDIWLHVDAAYAGSAFICPEFRHLLNGVEFADSFNFNPHKWLLVNFDCSAMWVKRRTDLTGAFKLDPVYLKHSHQGSGLITDYRHWQLPLGRRFRSLKMWFVFRMYGVKGLQAYIRKHVQLSHEFEAFVLQDPRFEVCAEVTLGLVCFRLKGSDGLNEALLERINSARKIHLVPCRLRGQFVLRFAICSRKVESGHVRLAWEHIRGLAAELLAAEEGKAEIKS
With B2, the Crude specific activity in data set [4] (setting [5]) is recorded as 0.05 units/mg; in data set [4] (Table 3, decarboxylases), 0.05 units/mg. This molecule also came in with a Purified specific activity in data set [4] (setting [5]) of 0.2 Units/mg.
